Publication PMC5462828 (Scientific Reports, 2017)

Experiments:
[1] = parameters: method as in PMID 23764525; conditions: cited from earlier work
[2] = system: p-Smad2; experiment: Smad2 phosphorylation assay in human cardiac fibroblasts; format: cell-based; conditions: 72 hours
Protocol: (§1) Cells were serum-starved in M199 medium for 24 hours prior sample collection. Cells were used between passages 1–4, while all experiments were performed four separate times in duplicate. Levels of p-Smad2 and p-Smad3 were detected using Sure-fire kits according to the manufacturer’s instructions (Perkin-Elmer, Australia).

[3] = target: T1, RXFP1 (Homo sapiens, UniProt Q9HBX9); experiment: JNK1/2 phosphorylation (Surefire) in HEK-RXFP1 cells; format: cell-based; parameters: expressed in transfected cells; host or cells: HEK293T / HEK293 cells stably expressing RXFP1 (HEK-RXFP1); conditions: up to 45 min, H2 relaxin 100 nM, ML290 100 nM or 10 μM
T1 sequence (Q9HBX9 1-757): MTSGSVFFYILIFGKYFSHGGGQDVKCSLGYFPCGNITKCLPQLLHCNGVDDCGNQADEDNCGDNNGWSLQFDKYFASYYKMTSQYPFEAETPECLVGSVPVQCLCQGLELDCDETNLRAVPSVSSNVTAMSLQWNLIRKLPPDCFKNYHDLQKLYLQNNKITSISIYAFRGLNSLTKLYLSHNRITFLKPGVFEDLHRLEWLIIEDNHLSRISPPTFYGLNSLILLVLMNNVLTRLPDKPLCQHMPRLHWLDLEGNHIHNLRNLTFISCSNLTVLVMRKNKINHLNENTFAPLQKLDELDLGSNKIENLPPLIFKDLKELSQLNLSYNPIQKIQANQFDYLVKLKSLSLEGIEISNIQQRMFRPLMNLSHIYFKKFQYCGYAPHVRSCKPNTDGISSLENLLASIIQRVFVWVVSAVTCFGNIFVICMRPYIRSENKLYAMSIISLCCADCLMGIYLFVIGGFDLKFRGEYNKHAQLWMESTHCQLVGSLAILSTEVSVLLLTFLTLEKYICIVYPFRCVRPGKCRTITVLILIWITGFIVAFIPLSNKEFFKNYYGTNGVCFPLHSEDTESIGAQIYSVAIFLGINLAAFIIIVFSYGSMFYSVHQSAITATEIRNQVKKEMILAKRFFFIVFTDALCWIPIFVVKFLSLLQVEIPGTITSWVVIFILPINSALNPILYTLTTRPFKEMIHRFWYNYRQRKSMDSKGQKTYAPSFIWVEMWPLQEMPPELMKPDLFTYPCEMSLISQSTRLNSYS
Protocol: (§2) p-ERK1/2, p-p38MAPK and p-JNK1/2 was measured using the Surefire ERK, p38 and JNK kits (TGR BioSciences, Australia) as described previously, [16]. Briefly, HEK-RXFP1 cells were plated into 96-well plates (5 × 10^4 cells/well) and primary cells grown in 24-well plates (1 × 10^5 cells/well) overnight to achieve a confluent monolayer. Prior to stimulation, HEK293 cells were serum-starved with DMEM containing 0.5% (v/v) FBS and primary cells in M199 medium for 4–6 hours. […] Levels of p-ERK1/2, p-p38MAPK and p-JNK1/2/3 were detected as per manufacturer’s instructions (Perkin-Elmer, Australia).

[4] = system: RXFP1; experiment: ERK1/2 phosphorylation (Surefire) in human primary vascular cells and cardiac fibroblasts; format: cell-based; conditions: HUAEC
Protocol: as §2

[5] = system: p-Smad3; experiment: Smad3 phosphorylation assay in human cardiac fibroblasts; format: cell-based; conditions: 72 hours
Protocol: as §1

[6] = target: T1, RXFP1; experiment: 125I-H2 relaxin radioligand binding in HEK-RXFP1 cells; parameters: expressed in transfected cells; host or cells: HEK293T / HEK293 cells stably expressing RXFP1 (HEK-RXFP1)
Protocol: Competition radioligand binding studies were performed in HEK-RXFP1 cells as described previously. […] After 90 min incubation at room temperature, the reaction was terminated with the removal of medium and washing with cold PBS. Cells were digested with 0.1 M NaOH and radioactivity counted on the γ-counter.

[7] = system: RXFP3; parameters: method as in PMID 23764525; conditions: cited from earlier work
[8] = system: LDLa mutant receptors; conditions: cited from earlier work
[9] = system: RXFP2; conditions: cited from earlier work
[10] = system: monkey RXFP1; parameters: method as in PMID 26866459; conditions: cited from earlier work
[11] = system: MMP-2; experiment: Gelatin zymography of MMP-2 in human cardiac fibroblasts; format: cell-based; conditions: HCFs; 72 hours; ML290 1 μM, H2 relaxin 0.1 μM
Protocol: Changes in matrix metalloproteinases-2 (MMP-2; gelatinase A) activity that were secreted from HCFs into the cell media over a 72 hour experimental period, were assessed by gelatin zymography as described previously, [45]. […] Cells were used between passages 1–4, while all experiments were performed four separate times in duplicate. The optical density (OD) of MMP-2 was measured using a GS710 Calibrated Imaging Densitomer (Bio-Rad Laboratories, Hercules, CA, USA), and the mean ± SE OD of MMP-2 in each treated group was expressed as the relative ratio of the values in the untreated control group.

[12] = target: T1, RXFP1; experiment: 125I-H2 relaxin association and dissociation kinetic studies in HEK-RXFP1 cells; format: binding; parameters: expressed in transfected cells; host or cells: HEK293T / HEK293 cells stably expressing RXFP1 (HEK-RXFP1); conditions: ML290 1 μM
Protocol: Association and dissociation kinetic studies were performed using ^125I-H2 relaxin. Briefly, HEK-RXFP1 cells were plated in 96-well plates and allowed to adhere overnight. After rinsing with PBS, the cells were incubated at the given time intervals with 100pM of ^125I-H2 relaxin to measure the association rate. The dissociation rate of ML290 was calculated using ligand competition. […] The reactions were terminated by the removal of medium and washing with ice-cold PBS. Cells were digested using 0.1 M NaOH and radioactivity counted on the γ-counter.

[13] = HCFs not treated with TGF-β1, H2 relaxin 0.1 μM, ML290 1 μM
[14] = HCFs, TGF-β1 2 ng/ml + H2 relaxin 0.1 μM or ML290 1 μM

For `CC(C)Oc1ccccc1C(=O)Nc1ccccc1C(=O)Nc1cccc(S(=O)(=O)C(F)(F)F)c1` [ML290, 2-Isopropoxy-N-(2-(3-(trifluoromethylsulfonyl)phenylcarbamoyl)phenyl) benzamide], the T1/2 in heart ([1]; heart) is given as 7.48 h, the tissue distribution ([1]; heart) is given as “concentrated in the heart” and the plasma half-life ([1]; mice) is given as 8.56 h. For the same molecule, the toxicity ([1]; mice) was “without obvious toxicity”, the T1/2 in plasma ([1]; plasma) was 8.56 h and the “effect on p-Smad2 levels” value [2, 13] was “neither H2 relaxin (0.1 μM) nor ML290 (1 μM) significantly affected”. The “p-Smad2 in TGF-β1-stimulated cells” value [2, 14] was 1.58 ± 0.34 fold/basal, the “JNK1/2 phosphorylation, time course” value [3] was “no effect” and the ERK1/2 phosphorylation [4] was “did not cause ERK1/2 phosphorylation”. The “effect on p-Smad3 levels” value [5, 13] was “neither H2 relaxin (0.1 μM) nor ML290 (1 μM) significantly affected”, the “p-Smad3 in TGF-β1-stimulated cells” value [5, 14] was 1.15 ± 0.05 fold/basal and the “125I-H2 relaxin specific binding to RXFP1 in presence of ML290” value ([6]; 125I-H2 relaxin 100pM, increased from 102.7 ± […]) was 135.2 ± 6.5%. The “effect on the affinity of H2 relaxin” value ([6]; ML290 1 μM) was “no significant effect”, the “action at RXFP3” value [7] was “little or no action” and the “cAMP production with LDLa mutant receptors” value [8] was “still activates cAMP production”. For the same molecule, the “action at RXFP2” value [9] was “little or no action”, the “agonist action at monkey RXFP1” value [10] was “activates” and the “increase of MMP-2 expression versus untreated controls” value [11] was about 40%. For the same molecule, the “effect on the association rate of 125I-H2 relaxin” value [12] was “no significant effect”.
